Assay results from patent US4665083A, “Iminothiazolidine derivatives” (priority 1984, dated 1987).
Like-named read-outs stand apart in the source and are kept apart here.

Experiments:
Tetrabenazine ptosis = assay: animal or person; type: in vivo; conditions: for Therapeutical index (tetrabenazine ptosis antagonism): LD50 and ED50 tetrabenazine ptosis, mice; for ED50: Mus musculus, po, read-out: Tetrabenazine ptosis antagonism ED50
Protocol: (2) Tetrabenazine ptosis antagonism on mice
The tetrabenazine ptosis antagonism of the compounds are tested on groups consisting of 10 mice each. […] 30 minutes after the introduction of the active agent or the vehicle, 50 mg/kg of tetrabenazine (3-isobutyl-9,10-[…]-1,2,3,4,6,7-hexahydrobenzo[a]quinolizine-2-one) are administered, intraperitoneally, and the animals with ptosis are counted 30, 60, 90 and 120 minutes after the administration of the tetrabenazine.
Evaluation: the average ptosis value is calculated in each group, and the deviation from the average obtained for the control group (inhibition) is given in percentage. From the data obtained ED50 values are calculated.

intestinal peristalsis = assay: animal or person; type: in vivo; conditions: for Therapeutical index (inhibition of intestinal peristalsis): LD50 and ED50 intestinal peristalsis, mice; for ED50: Mus musculus, po, read-out: Inhibition of intestinal peristalsis ED50
Protocol: (8) Antiperistaltic effect on mice
The antiperistaltic effect of the compounds is examined on mice weighing 20 to 25 g according to the method of Stickney and co-workers. Each dosis of the compound to be tested is administered, orally, 60 minutes prior to the administration of a 10 percent carbon suspension. […] 20 minutes after the administration of the carbon suspension, the animals are sacrificed, and the length of the entire small intestine as well as that of the small intestine filled with carbon are determined. The inhibition in relation to the control is calculated in percentage. […] From the values thus-transformed ED50 values are calculated.

pentatetrazole spasm = assay: animal or person; type: in vivo; conditions: for Therapeutical index (inhibition of pentatetrazole spasm): LD50 and ED50 pentatetrazole spasm, mice; for ED50: Mus musculus, po, read-out: Inhibition of pentatetrazole spasm ED50
Protocol: (6) Inhibition of pentatetrazole spasm
The test is performed on mice according to a modified method of Banziger and Hane.

Reserpine ptosis = assay: animal or person; type: in vivo; conditions: for Therapeutical index (reserpine ptosis antagonism): LD50 and ED50 reserpine ptosis, mice; for ED50: Mus musculus, sc, 1 h, read-out: Reserpine ptosis antagonism ED50
Protocol: (3) Reserpine ptosis antagonism on mice
Each group consisting of 10 mice are treated with 6 mg/kg of reserpine, subcutaneously. […] The animals with ptosis are counted 60 and 120 minutes after the administration of the compounds to be tested. Evaluation is carried out as given under point (2) above.

nicotine lethality = assay: Inhibition of nicotine spasm / nicotine lethality; type: in vivo, mice; conditions: for Therapeutical index (inhibition of nicotine lethality): LD50 and ED50 nicotine lethality; for ED50: Mus musculus, read-out: Inhibition of nicotine lethality ED50
Protocol: (5) Inhibition of nicotine spasm
The test is carried out on mice according to Stone.

in vivo = conditions: mouse, mice, 7 days observation, Litchfield-Wilcoxon
Protocol: (1) Acute toxicity on mice
The acute toxicity is determined on mice of both sex (CFLP breed, body weight 18 to 22 g). For each dosis 6 animals are employed. The compounds tested are administered orally in a volume of 20 ml/kg body weight. After the administration the animals are observed for 7 days. During this period the animals are fed with standard mouse feed and water ad libitum. The toxicity values are determined according to Litchfield-Wilcoxon's method.

acetic acid writhing = assay: animal or person; type: in vivo; conditions: for Therapeutical index (analgesic effect, writhing test): LD50 and ED50 writhing test, mice; for ED50: Mus musculus, ip, read-out: Analgesic effect (writhing test) ED50
Protocol: (9) Analgesic effect on mice (writhing test)
The test is carried out on mice according to the modified method of Newbould. 0.75 percent acetic acid is administered to the animals in a volume of 20 ml/kg, intraperitoneally, and the characteristic "writhing reactions" are counted for a period of 5 minutes, starting from the fifth minute after challenge. […] The inhibition relative to the control group is evaluated in percentage.

yohimbine toxicity = assay: animal or person; type: in vivo; conditions: for Therapeutical index (potentiation of yohimbine toxicity): LD50 and ED50 yohimbine toxicity, mice; for ED50: Mus musculus, ip, read-out: Potentiation of yohimbine toxicity ED50
Protocol: (4) Yohimbine toxicity test on mice.
The examination is performed according to Quinton's method. Each group of animals consisting of 10 mice are treated with the compounds to be tested and the vehicle without active agent, respectively. After one hour a sublethal dosage of yohimbine in a volume of 20 ml/kg body weight is administered to the test groups, intraperitoneally. The number of the dead animals is recorded 1 and 24 hours after the administration of yohimbine.

maximum electroshock = assay: animal or person; type: in vivo; conditions: for Therapeutical index (inhibition of maximum electroshock): LD50 and ED50 electroshock, mice; for ED50: Mus musculus, po, read-out: Inhibition of maximum electroshock ED50
Protocol: (7) Maximum inhibition of electroshock
The examination is carried out on mice weighing 20 to 25 g according to Swinyard. Electroshocks having the parameters of 50 Hz, 45 mA and 0.4 sec are employed by means of corneal electrodes. The complete inhibition of the tonic spasm of the lower limb extensor is taken as the criterium of the anticonvulsive action.

[1] = mice, oral, 1 hour before 1.4 mg/kg i.v. nicotine

## Br.COc1ccc(N2CCSC2=N)c([N+](=O)[O-])c1 [Compound 11, 3-(4-methoxy-2-nitrophenyl)-2-iminothiazolidine hydrobromide]
Tetrabenazine ptosis
  Therapeutical index (tetrabenazine ptosis antagonism): 16.3
  ED50: 40 mg/kg
Intestinal peristalsis
  Therapeutical index (inhibition of intestinal peristalsis): 6.2
  ED50: 105 mg/kg
Pentatetrazole spasm
  Therapeutical index (inhibition of pentatetrazole spasm): 19.11
  ED50: 34 mg/kg
Reserpine ptosis
  Therapeutical index (reserpine ptosis antagonism): 16.3
  ED50: 40 mg/kg
Nicotine lethality; mice
  Therapeutical index (inhibition of nicotine lethality): 14.4
Nicotine lethality; [1]
  ED50: 45 mg/kg
In vivo; po
  LD50 at 168 h: 650 mg/kg

## N=C1SCCN1c1cc(Cl)ccc1[N+](=O)[O-] [Compound 9, 3-(5-chloro-2-nitrophenyl)-2-iminothiazolidine]
Intestinal peristalsis
  Therapeutical index (inhibition of intestinal peristalsis): 38.9
  ED50: 18 mg/kg
Acetic acid writhing
  Therapeutical index (analgesic effect, writhing test): 13
  ED50: 54 mg/kg
In vivo; po
  LD50 at 168 h: 700 mg/kg

## CN(C)CCC=C1c2ccccc2CCc2ccccc21 [Amitriptylin, reference compound]
Tetrabenazine ptosis
  Therapeutical index (tetrabenazine ptosis antagonism): 18.7
  ED50: 12 mg/kg
Yohimbine toxicity
  Therapeutical index (potentiation of yohimbine toxicity): 18
  ED50: 12.5 mg/kg
Reserpine ptosis
  Therapeutical index (reserpine ptosis antagonism): 3.5
  ED50: 65 mg/kg

## N=C1SCCN1c1ccc(C(F)(F)F)cc1N [Compound 4 (diethanesulfonate)]
Intestinal peristalsis
  Therapeutical index (inhibition of intestinal peristalsis): 52
  ED50: 25 mg/kg
Acetic acid writhing
  Therapeutical index (analgesic effect, writhing test): 8.1
  ED50: 160 mg/kg

## Cl.Cl.N=C1SCCN1c1ccc(Cl)cc1N [Compound 1, 3-(2-amino-4-chlorophenyl)-2-iminothiazolidine dihydrochloride]
Tetrabenazine ptosis
  Therapeutical index (tetrabenazine ptosis antagonism): 39
  ED50: 18 mg/kg
Pentatetrazole spasm
  Therapeutical index (inhibition of pentatetrazole spasm): 31.8
  ED50: 22 mg/kg
Reserpine ptosis
  Therapeutical index (reserpine ptosis antagonism): 14
  ED50: 50 mg/kg
Maximum electroshock
  Therapeutical index (inhibition of maximum electroshock): 10
  ED50: 70 mg/kg
Nicotine lethality; mice
  Therapeutical index (inhibition of nicotine lethality): 5.6
Nicotine lethality; po
  ED50: 25 mg/kg
In vivo; oral
  LD50 at 168 h: 700 mg/kg

## CCS(=O)(=O)O.CCS(=O)(=O)O.COc1ccc(N2CCSC2=N)c(N)c1 [Compound 7 (diethanesulfonate), 2-imino-3-(2'-amino-4'-methoxyphenyl)-thiazolidine di(ethanesulfonate)]
Intestinal peristalsis
  Therapeutical index (inhibition of intestinal peristalsis): 10
  ED50: 200 mg/kg
In vivo; po
  LD50 at 168 h: 2000 mg/kg

## CC(=O)Nc1ccc(O)cc1 [Paracetamol, reference compound]
Acetic acid writhing
  ED50: 180 mg/kg

## Cl.N=C1SCCN1c1ccc(Cl)cc1[N+](=O)[O-] [Compound 5, 3-(4-chloro-2-nitrophenyl)-2-iminothiazolidine hydrochloride]
Pentatetrazole spasm
  Therapeutical index (inhibition of pentatetrazole spasm): 16.6
  ED50: 66 mg/kg
Nicotine lethality; mice
  Therapeutical index (inhibition of nicotine lethality): 122
Nicotine lethality; [1]
  ED50: 9 mg/kg
In vivo; po
  LD50 at 168 h: 1100 mg/kg

## N=C1SCCN1c1ccccc1[N+](=O)[O-] [Compound 10, 3-(2-nitrophenyl)-2-iminothiazolidine]
Intestinal peristalsis
  Therapeutical index (inhibition of intestinal peristalsis): 5
  ED50: 140 mg/kg
Nicotine lethality; mice
  Therapeutical index (inhibition of nicotine lethality): 24
Nicotine lethality; po
  ED50: 50 mg/kg
Acetic acid writhing
  Therapeutical index (analgesic effect, writhing test): 17.5
  ED50: 40 mg/kg
In vivo; po
  LD50 at 168 h: 700 mg/kg

## OC(CCN1CCCCC1)(c1ccccc1)C1CCCCC1 (stereo not drawn) [Trihexyphenidyl, reference compound]
Nicotine lethality; [1]
  ED50: 40 mg/kg

## COc1ccc(Cc2nccc3cc(OC)c(OC)cc23)cc1OC [Papaverine, reference compound]
Intestinal peristalsis
  Therapeutical index (inhibition of intestinal peristalsis): 2.01
  ED50: 185 mg/kg
In vivo; oral
  LD50 at 168 h: 380 mg/kg

## Cl.N=C1SCCN1c1ccc(C(F)(F)F)cc1N [Compound 4, 3-(2-amino-4-trifluoromethylphenyl)-2-iminothiazolidine hydrochloride]
Tetrabenazine ptosis
  Therapeutical index (tetrabenazine ptosis antagonism): 32.5
  ED50: 40 mg/kg
Intestinal peristalsis
  Therapeutical index (inhibition of intestinal peristalsis): 19.7
  ED50: 66 mg/kg
Pentatetrazole spasm
  Therapeutical index (inhibition of pentatetrazole spasm): 8.1
  ED50: 160 mg/kg
Reserpine ptosis
  Therapeutical index (reserpine ptosis antagonism): 38
  ED50: 34 mg/kg
In vivo; po
  LD50 at 168 h: 1300 mg/kg

## N=C1SCCN1c1ccc(N)cc1[N+](=O)[O-] [Compound 15, 3-(4-amino-2-nitrophenyl)-2-iminothiazolidine]
Intestinal peristalsis
  Therapeutical index (inhibition of intestinal peristalsis): 12
  ED50: 130 mg/kg
Acetic acid writhing
  Therapeutical index (analgesic effect, writhing test): 10.4
  ED50: 115 mg/kg
In vivo; po
  LD50 at 168 h: 1200 mg/kg

## CC1CSC(=N)N1c1ccc(Cl)cc1N.Cl.Cl (stereo not drawn) [Compound 3, 3-(2-amino-4-chlorophenyl)-2-imino-4-methylthiazolidine dihydrochloride]
Tetrabenazine ptosis
  Therapeutical index (tetrabenazine ptosis antagonism): 67
  ED50: 3 mg/kg
Pentatetrazole spasm
  Therapeutical index (inhibition of pentatetrazole spasm): 25.6
  ED50: 7.8 mg/kg
Reserpine ptosis
  Therapeutical index (reserpine ptosis antagonism): 67
  ED50: 3 mg/kg
Maximum electroshock
  Therapeutical index (inhibition of maximum electroshock): 14.2
  ED50: 14 mg/kg
Nicotine lethality; mice
  Therapeutical index (inhibition of nicotine lethality): 31.3
Nicotine lethality; [1]
  ED50: 6.4 mg/kg
In vivo; po
  LD50 at 168 h: 200 mg/kg

## Cl.Cl.N=C1SCCN1c1cc(Cl)ccc1N [Compound 2, 3-(2-amino-5-chlorophenyl)-2-iminothiazolidine dihydrochloride]
Tetrabenazine ptosis
  Therapeutical index (tetrabenazine ptosis antagonism): 32
  ED50: 25 mg/kg
Pentatetrazole spasm
  Therapeutical index (inhibition of pentatetrazole spasm): 10.2
  ED50: 78 mg/kg
Yohimbine toxicity
  Therapeutical index (potentiation of yohimbine toxicity): 16
  ED50: 50 mg/kg
Acetic acid writhing
  Therapeutical index (analgesic effect, writhing test): 18.6
  ED50: 43 mg/kg
In vivo; po
  LD50 at 168 h: 800 mg/kg

## Cc1ccc(N2CCSC2=N)c(N)c1 [Compound 13, 3-(2-amino-4-methylphenyl)-2-iminothiazolidine]
Yohimbine toxicity
  Therapeutical index (potentiation of yohimbine toxicity): 25
  ED50: 52 mg/kg
Reserpine ptosis
  Therapeutical index (reserpine ptosis antagonism): 18.5
  ED50: 70 mg/kg
Nicotine lethality; mice
  Therapeutical index (inhibition of nicotine lethality): 130
Nicotine lethality; [1]
  ED50: 10 mg/kg
Acetic acid writhing
  Therapeutical index (analgesic effect, writhing test): 8.1
  ED50: 160 mg/kg
In vivo; po
  LD50 at 168 h: 1300 mg/kg

## CN1C(=O)OC(C)(C)C1=O [Trimethadion, reference compound]
Pentatetrazole spasm
  ED50: 490 mg/kg
Maximum electroshock
  ED50: 400 mg/kg
In vivo; oral
  LD50 at 168 h: 2050 mg/kg

## COc1ccc(N2CCSC2=N)c(N)c1.Cl.Cl [Compound 7, 3-(2-amino-4-methoxyphenyl)-2-iminothiazolidine dihydrochloride]
Tetrabenazine ptosis
  Therapeutical index (tetrabenazine ptosis antagonism): 75
  ED50: 16 mg/kg
In vivo; po
  LD50 at 168 h: 1200 mg/kg

## Cl.N=C1SCCN1c1ccc(C(F)(F)F)cc1[N+](=O)[O-] [Compound 6, 3-(2-nitro-4-trifluoromethylphenyl)-2-iminothiazolidine hydrochloride]
Intestinal peristalsis
  Therapeutical index (inhibition of intestinal peristalsis): 100
  ED50: 8 mg/kg
In vivo; po
  LD50 at 168 h: 800 mg/kg

## N=C1SCCN1c1ccc(N)cc1 [Compound 14, 3-(4-aminophenyl)-2-imino-1,3-thiazolidine]
Intestinal peristalsis
  Therapeutical index (inhibition of intestinal peristalsis): 4.4
  ED50: 50 mg/kg
Yohimbine toxicity
  Therapeutical index (potentiation of yohimbine toxicity): 20.0
  ED50: 20 mg/kg
In vivo; po
  LD50 at 168 h: 400 mg/kg
